The text below walks through data of patent US20230399342A1 (Incyte Corporation, priority 2022, published 2023).

A value given as a limit tells only on which side of the number the result lay.

The target of one assay is DGKζ (Homo sapiens (Human), UniProt Q13574). Put plainly: In vitro DGKζ inhibition assay (ADP-Glo). It counts as biochemical. Particulars: His-tagged human recombinant enzyme, 0.4 nM DGK, 30 μM ATP, 20 μM DLG, 90 minute incubation. The method in brief:
(§1)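 His-tagged human DGKα (0.1 nM, 50 μM ATP) or DGKζ (0.4 nM, 30 μM ATP), each with 20 μM DLG, in Tris pH 7.5 buffer with CHAPS, Mg2+, Ca2+.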

A further assay has as its target DGKα (Homo sapiens (Human), UniProt P23743). Put plainly: In vitro DGKα inhibition assay (ADP-Glo). It counts as biochemical. Particulars: His-tagged human recombinant enzyme, 0.1 nM DGKα, 50 μM ATP, 20 μM DLG, 90 minute incubation. Summed up:
as §1
In general terms: ADP-Glo turns the ADP formed in a reaction into a luminescent signal.

Sequence of DGKα (P23743 whole entry): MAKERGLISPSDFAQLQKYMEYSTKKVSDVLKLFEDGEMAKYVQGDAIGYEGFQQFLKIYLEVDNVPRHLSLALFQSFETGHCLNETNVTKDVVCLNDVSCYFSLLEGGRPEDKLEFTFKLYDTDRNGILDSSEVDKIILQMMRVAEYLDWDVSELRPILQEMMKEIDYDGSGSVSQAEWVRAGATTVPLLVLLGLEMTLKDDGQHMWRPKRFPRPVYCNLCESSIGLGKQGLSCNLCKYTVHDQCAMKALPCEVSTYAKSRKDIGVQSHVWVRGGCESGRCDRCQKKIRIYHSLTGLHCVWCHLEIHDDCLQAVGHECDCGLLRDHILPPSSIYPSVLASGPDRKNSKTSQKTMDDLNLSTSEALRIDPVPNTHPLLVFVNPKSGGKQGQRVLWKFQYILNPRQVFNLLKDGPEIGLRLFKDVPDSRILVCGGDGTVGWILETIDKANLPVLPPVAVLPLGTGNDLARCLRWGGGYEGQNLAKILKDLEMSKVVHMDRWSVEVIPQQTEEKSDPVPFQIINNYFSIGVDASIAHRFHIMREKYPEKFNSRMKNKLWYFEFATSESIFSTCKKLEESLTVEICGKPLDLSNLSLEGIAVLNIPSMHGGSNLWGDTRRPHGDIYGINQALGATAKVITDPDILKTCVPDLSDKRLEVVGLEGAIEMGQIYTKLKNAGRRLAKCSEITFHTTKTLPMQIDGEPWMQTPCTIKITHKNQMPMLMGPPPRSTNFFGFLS
Sequence of DGKζ (Q13574 whole entry): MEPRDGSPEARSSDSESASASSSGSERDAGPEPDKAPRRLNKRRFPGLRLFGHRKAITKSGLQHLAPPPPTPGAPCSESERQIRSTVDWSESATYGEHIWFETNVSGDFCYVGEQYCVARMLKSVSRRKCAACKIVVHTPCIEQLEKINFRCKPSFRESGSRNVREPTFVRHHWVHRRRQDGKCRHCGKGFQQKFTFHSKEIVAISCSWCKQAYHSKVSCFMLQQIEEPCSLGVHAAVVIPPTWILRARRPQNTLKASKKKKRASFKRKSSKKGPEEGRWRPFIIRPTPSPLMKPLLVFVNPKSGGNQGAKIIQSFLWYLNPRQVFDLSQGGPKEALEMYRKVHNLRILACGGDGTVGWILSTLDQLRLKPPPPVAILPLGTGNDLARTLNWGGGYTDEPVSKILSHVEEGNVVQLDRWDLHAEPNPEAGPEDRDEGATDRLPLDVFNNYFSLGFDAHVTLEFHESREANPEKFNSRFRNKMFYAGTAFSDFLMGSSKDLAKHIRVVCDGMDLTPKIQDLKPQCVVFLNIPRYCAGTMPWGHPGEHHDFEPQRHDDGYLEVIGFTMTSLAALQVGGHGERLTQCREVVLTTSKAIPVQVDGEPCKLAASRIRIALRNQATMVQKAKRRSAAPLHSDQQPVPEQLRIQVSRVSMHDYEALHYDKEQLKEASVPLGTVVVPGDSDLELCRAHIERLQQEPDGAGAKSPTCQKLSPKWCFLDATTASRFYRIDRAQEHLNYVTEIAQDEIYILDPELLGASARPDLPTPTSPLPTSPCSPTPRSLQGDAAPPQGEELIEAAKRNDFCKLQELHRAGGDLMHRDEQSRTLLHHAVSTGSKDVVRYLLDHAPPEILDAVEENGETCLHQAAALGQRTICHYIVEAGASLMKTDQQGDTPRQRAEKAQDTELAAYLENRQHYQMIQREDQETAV

Take `Cc1nc2c(N3C[C@@H](C)N([C@@H](c4ccc(OC(F)F)cc4F)C(C)C)C[C@@H]3C)nc3nncn3c2n1C[C@@H]1CCCO1` [Example 76, 4-((2S,5R)-4-((R)-1-(4-(difluoromethoxy)-2-fluorophenyl)-2-methylpropyl)-2,5-dimethylpiperazin-1-yl)-2-methyl-1-(((S)-tetrahydrofuran-2-yl)methyl)-1H-[1,2,4]triazolo[3,4-b]purine]: the IC50 at DGKζ and on DGKα was not above 20 nM each time.
Consider `COc1ccc([C@H](C(C)C)N2C[C@H](C)N(c3nc4nncn4c4c3nc(C)n4C[C@@H]3CCCO3)C[C@H]2C)cc1` [Example 77, 4-((2S,5R)-4-((S)-1-(4-Methoxyphenyl)-2-methylpropyl)-2,5-dimethylpiperazin-1-yl)-2-methyl-1-(((S)-tetrahydrofuran-2-yl)methyl)-1H-[1,2,4]triazolo[3,4-b]purine], for which the IC50 on DGKζ and at DGKα was not above 20 nM in each case.
Take `COc1ccc([C@@H](C(C)C)N2C[C@H](C)N(c3nc4nncn4c4c3nc(C)n4C[C@@H]3CCCO3)C[C@H]2C)cc1` [Example 78, 4-((2S,5R)-4-((R)-1-(4-methoxyphenyl)-2-methylpropyl)-2,5-dimethylpiperazin-1-yl)-2-methyl-1-(((S)-tetrahydrofuran-2-yl)methyl)-1H-[1,2,4]triazolo[3,4-b]purine]: the IC50 on DGKζ and at DGKα was not above 20 nM throughout.
On to `Cc1nc2c(N3C[C@@H](C)N([C@H](c4ccc(OC(F)F)cc4)C(C)C)C[C@@H]3C)nc3nncn3c2n1C[C@@H]1CCCO1` [Example 79, 4-((2S,5R)-4-((S)-1-(4-(Difluoromethoxy)phenyl)-2-methylpropyl)-2,5-dimethylpiperazin-1-yl)-2-methyl-1-(((S)-tetrahydrofuran-2-yl)methyl)-1H-[1,2,4]triazolo[3,4-b]purine], for which the IC50 on DGKζ and at DGKα was not above 20 nM in each case.
As to `Cc1nc2c(N3C[C@@H](C)N([C@@H](c4ccc(OC(F)F)cc4)C(C)C)C[C@@H]3C)nc3nncn3c2n1C[C@@H]1CCCO1` [Example 80, 4-((2S,5R)-4-((R)-1-(4-(difluoromethoxy)phenyl)-2-methylpropyl)-2,5-dimethylpiperazin-1-yl)-2-methyl-1-(((S)-tetrahydrofuran-2-yl)methyl)-1H-[1,2,4]triazolo[3,4-b]purine], the figures for the IC50 on DGKζ and at DGKα were 20 to 200 nM and not above 20 nM, respectively.
The matching figures for `Cc1nc2c(N3C[C@@H](C)N(C(c4ccc(F)c(C(F)F)c4)C(C)C)C[C@@H]3C)nc3nncn3c2n1C[C@@H]1CCCO1` (stereo partly drawn) [Example 82, 4-((2S,5R)-4-(1-(3-(Difluoromethyl)-4-fluorophenyl)-2-methylpropyl)-2,5-dimethylpiperazin-1-yl)-2-methyl-1-(((S)-tetrahydrofuran-2-yl)methyl)-1H-[1,2,4]triazolo[3,4-b]purine]: not above 20 nM and not above 20 nM.
Taken in the same sequence, the figures for `Cc1nc2c(N3C[C@@H](C)N(C(c4ccc(C(F)(F)F)c(F)c4)C(C)C)C[C@@H]3C)nc3nncn3c2n1C[C@@H]1CCCO1` (stereo partly drawn) [Example 83, 4-((2S,5R)-4-(1-(3-Fluoro-4-(trifluoromethyl)phenyl)-2-methylpropyl)-2,5-dimethylpiperazin-1-yl)-2-methyl-1-(((S)-tetrahydrofuran-2-yl)methyl)-1H-[1,2,4]triazolo[3,4-b]purine] were not above 20 nM and not above 20 nM.
Taken in the same sequence, the figures for `Cc1nc2c(N3C[C@@H](C)N(C(c4ccc(F)c(C(F)(F)F)c4)C(C)C)C[C@@H]3C)nc3nncn3c2n1C[C@@H]1CCCO1` (stereo partly drawn) [Example 84, 4-((2S,5R)-4-(1-(4-Fluoro-3-(trifluoromethyl)phenyl)-2-methylpropyl)-2,5-dimethylpiperazin-1-yl)-2-methyl-1-(((S)-tetrahydrofuran-2-yl)methyl)-1H-[1,2,4]triazolo[3,4-b]purine] were not above 20 nM and not above 20 nM.
Regarding `Cc1nc2c(N3C[C@@H](C)N(C(c4ccc(C(F)(F)F)c(Cl)c4)C(C)C)C[C@@H]3C)nc3nncn3c2n1C[C@@H]1CCCO1` (stereo partly drawn) [Example 85, 4-((2S,5R)-4-(1-(3-Chloro-4-(trifluoromethyl)phenyl)-2-methylpropyl)-2,5-dimethylpiperazin-1-yl)-2-methyl-1-(((S)-tetrahydrofuran-2-yl)methyl)-1H-[1,2,4]triazolo[3,4-b]purine], the IC50 at DGKζ and at DGKα was not above 20 nM in each case.
Regarding `Cc1nc2c(N3C[C@@H](C)N([C@H](c4ccc(F)c(Cl)c4)C(C)C)C[C@@H]3C)nc3nncn3c2n1C[C@@H]1CCCO1` [Example 86, 4-((2S,5R)-4-((S)-1-(3-Chloro-4-fluorophenyl)-2-methylpropyl)-2,5-dimethylpiperazin-1-yl)-2-methyl-1-(((S)-tetrahydrofuran-2-yl)methyl)-1H-[1,2,4]triazolo[3,4-b]purine], the IC50 on DGKζ and on DGKα was not above 20 nM each time.
For `Cc1nc2c(N3C[C@@H](C)N([C@H](c4ccc(Cl)cc4)C(C)C)C[C@@H]3C)nc3nncn3c2n1C[C@@H]1CCCO1` [Example 88, 4-((2S,5R)-4-((S)-1-(4-Chlorophenyl)-2-methylpropyl)-2,5-dimethylpiperazin-1-yl)-2-methyl-1-(((S)-tetrahydrofuran-2-yl)methyl)-1H-[1,2,4]triazolo[3,4-b]purine], the IC50 on DGKζ and on DGKα was not above 20 nM in each case.
Consider `Cc1nc2c(N3C[C@@H](C)N([C@@H](c4ccc(Cl)cc4)C(C)C)C[C@@H]3C)nc3nncn3c2n1C[C@@H]1CCCO1` [Example 89, 4-((2S,5R)-4-((R)-1-(4-chlorophenyl)-2-methylpropyl)-2,5-dimethylpiperazin-1-yl)-2-methyl-1-(((S)-tetrahydrofuran-2-yl)methyl)-1H-[1,2,4]triazolo[3,4-b]purine], for which the IC50 at DGKζ and on DGKα was not above 20 nM in each case.
On to `CC(C)[C@@H](c1ccc(Cl)cc1)N1C[C@H](C)N(c2nc3nncn3c3c2ncn3CCN(C)C)C[C@H]1C` [Example 90, 2-(4-((2S,5R)-4-((S)-1-(4-Chlorophenyl)-2-methylpropyl)-2,5-dimethylpiperazin-1-yl)-1H-[1,2,4]triazolo[3,4-b]purin-1-yl)-N,N-dimethylethan-1-amine], for which the IC50 at DGKζ and on DGKα was not above 20 nM throughout.
As for `CC(C)[C@H](c1ccc(Cl)cc1)N1C[C@H](C)N(c2nc3nncn3c3c2ncn3CCN(C)C)C[C@H]1C` [Example 91, 2-(4-((2S,5R)-4-((R)-1-(4-chlorophenyl)-2-methylpropyl)-2,5-dimethylpiperazin-1-yl)-1H-[1,2,4]triazolo[3,4-b]purin-1-yl)-N,N-dimethylethan-1-amine], the figures for the IC50 at DGKζ and at DGKα were 20 to 200 nM and not above 20 nM, respectively.
Taken in the same sequence, the figures for `COc1ccc([C@H](c2ccc(C(F)F)cc2)N2C[C@H](C)N(c3nc4nncn4c4c3nc(C)n4C[C@@H]3CCCO3)C[C@H]2C)cc1` [Example 92, 4-((2S,5R)-4-((4-(Difluoromethyl)phenyl)(4-methoxyphenyl)methyl)-2,5-dimethylpiperazin-1-yl)-2-methyl-1-(((S)-tetrahydrofuran-2-yl)methyl)-1H-[1,2,4]triazolo[3,4-b]purine] were not above 20 nM and not above 20 nM.
Take `C[C@@H]1CN(c2nc3nncn3c3c2ncn3C[C@@H]2CCCO2)[C@@H](C)CN1C(c1ccc(Cl)cc1)c1ccc(Cl)cc1` [Example 93, 4-((2S,5R)-4-(Bis(4-chlorophenyl)methyl)-2,5-dimethylpiperazin-1-yl)-1-(((S)-tetrahydrofuran-2-yl)methyl)-1H-[1,2,4]triazolo[3,4-b]purine]: the IC50 on DGKζ and on DGKα was not above 20 nM in each case.
Regarding `Cc1nc2c(N3C[C@@H](C)N([C@H](c4cccc(F)c4)C(C)C)C[C@@H]3C)nc3nncn3c2n1C[C@@H]1CCCO1` [Example 94, 4-((2S,5R)-4-((S)-1-(3-Fluorophenyl)-2-methylpropyl)-2,5-dimethylpiperazin-1-yl)-2-methyl-1-(((S)-tetrahydrofuran-2-yl)methyl)-1H-[1,2,4]triazolo[3,4-b]purine], the IC50 on DGKζ and at DGKα was not above 20 nM each time.
As for `Cc1nc2c(N3C[C@@H](C)N([C@@H](c4cccc(F)c4)C(C)C)C[C@@H]3C)nc3nncn3c2n1C[C@@H]1CCCO1` [Example 95, 4-((2S,5R)-4-((R)-1-(3-fluorophenyl)-2-methylpropyl)-2,5-dimethylpiperazin-1-yl)-2-methyl-1-(((S)-tetrahydrofuran-2-yl)methyl)-1H-[1,2,4]triazolo[3,4-b]purine], the 50% inhibitory concentration (IC50) on DGKζ and on DGKα was not above 20 nM throughout.
As to `Cc1nc2c(N3C[C@@H](C)N([C@H](c4cccc(Cl)c4)C(C)C)C[C@@H]3C)nc3nncn3c2n1C[C@@H]1CCCO1` [Example 96, 4-((2S,5R)-4-((S)-1-(3-Chlorophenyl)-2-methylpropyl)-2,5-dimethylpiperazin-1-yl)-2-methyl-1-(((S)-tetrahydrofuran-2-yl)methyl)-1H-[1,2,4]triazolo[3,4-b]purine], the IC50 on DGKζ and at DGKα was not above 20 nM throughout.
Regarding `Cc1nc2c(N3C[C@@H](C)N([C@@H](c4cccc(Cl)c4)C(C)C)C[C@@H]3C)nc3nncn3c2n1C[C@@H]1CCCO1` [Example 97, 4-((2S,5R)-4-((R)-1-(3-chlorophenyl)-2-methylpropyl)-2,5-dimethylpiperazin-1-yl)-2-methyl-1-(((S)-tetrahydrofuran-2-yl)methyl)-1H-[1,2,4]triazolo[3,4-b]purine], the IC50 on DGKζ and on DGKα was not above 20 nM in each case.
In the case of `COc1cccc([C@H](C(C)C)N2C[C@H](C)N(c3nc4nncn4c4c3nc(C)n4C[C@@H]3CCCO3)C[C@H]2C)c1` [Example 98, 4-((2S,5R)-4-((S)-1-(3-Methoxyphenyl)-2-methylpropyl)-2,5-dimethylpiperazin-1-yl)-2-methyl-1-(((S)-tetrahydrofuran-2-yl)methyl)-1H-[1,2,4]triazolo[3,4-b]purine], the IC50 on DGKζ and at DGKα was not above 20 nM in each case.

As a reminder, the IC50 is the midpoint of a concentration-inhibition curve.
